# In patent US20250205211A1, “TYK2 INHIBITORS AND USES THEREOF” (Alumis Inc., priority 2022, published 2025):
# Experiment: FIH study: single doses and seven-day courses of Compound A in healthy participants (safety, pharmacokinetics)
# Assay type: in vivo, human
# [1] = single dose 100 mg, FIH study, mean
structure (smiles),measurement,setting,value
"[2H]C([2H])([2H])CC(=O)c1cnc(NC(=O)C2CC2)cc1Nc1cccc(-c2ncn(C([2H])([2H])[2H])n2)c1OC [Compound A, N-(4-((2-Methoxy-3-(1-(methyl-d3)-1H-1,2,4-triazol-3-yl)phenyl)amino)-5-(propanoyl-3,3,3-d3)pyridin-2-yl)cyclopropanecarboxamide]",AUC,"human, in vivo, oral, seven-day course, 40 mg q12h, read-out: mean AUC from time 0 to 12 hours at steady state [AUCo-12,ss]",3620 ng·h/mL
same,Cmax,"human, in vivo, oral, single dose 100 mg, FIH study, highest individual value",1160 ng/mL
same,AUC(0-inf),"human, in vivo, oral, single dose 100 mg, FIH study, highest individual value, read-out: AUC0-inf highest value",13700 ng·h/mL
same,"mean Cmax at steady state [Cmax,ss]","seven-day course, 40 mg q12h",433 ng/mL
same,tolerability of seven-day courses,seven-day courses of up to 40 mg q12h,well tolerated
same,AUC0-inf averaged,[1],"11,286 ng*h/mL"
same,Cmax averaged,[1],949 ng/mL
same,safety of single doses,single doses of up to 100 mg,without clinically significant safety concerns
